By IC50 is commonly meant the concentration that gives 50% inhibition. Low values mean greater potency, high ones weaker potency.

Structures are written as SMILES. Changes are numbered by the printed parent chain.

IC50 data for 1 compound are collected here from PMC4171615, “Discovery of selective inhibitors of Glutaminase-2, which inhibit mTORC1, activate autophagy and inhibit proliferation in cancer cells” (Oncotarget, 2014).

The target of one assay is T1, KGA_D520K (Homo sapiens, UniProt O94925, D520K).
T1 construct: a KGA cDNA fragment of 1644 bp (residues Leu123-Leu669); His-tag (N); made in house; host or cells: Escherichia coli
T1 sequence (O94925 123-669 D520K): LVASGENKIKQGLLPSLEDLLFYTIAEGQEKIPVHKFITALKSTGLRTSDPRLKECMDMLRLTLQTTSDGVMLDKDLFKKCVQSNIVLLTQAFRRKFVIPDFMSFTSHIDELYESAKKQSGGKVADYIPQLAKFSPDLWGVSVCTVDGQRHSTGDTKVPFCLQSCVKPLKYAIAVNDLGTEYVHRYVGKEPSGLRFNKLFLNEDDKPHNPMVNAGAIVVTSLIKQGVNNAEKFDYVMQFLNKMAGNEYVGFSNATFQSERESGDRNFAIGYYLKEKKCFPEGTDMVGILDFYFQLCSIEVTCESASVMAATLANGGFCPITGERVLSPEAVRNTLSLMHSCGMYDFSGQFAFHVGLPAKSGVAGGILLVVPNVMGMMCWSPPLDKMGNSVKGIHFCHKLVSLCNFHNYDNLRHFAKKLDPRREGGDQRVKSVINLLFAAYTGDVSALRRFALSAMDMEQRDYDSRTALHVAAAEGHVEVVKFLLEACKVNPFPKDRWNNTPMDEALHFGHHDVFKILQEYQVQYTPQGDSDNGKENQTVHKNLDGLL
The assay can be described thus: Glutaminase activity assay, KGA mutant D520K. The assay is classed as biochemical. The protocol:
(§1) Human glutaminase activity was measured using a two-step assay as described previously. A microtiter assay format was used to facilitate the collection of multiple data points. Typically, 10 μl of compound, which was dissolved in DMSO, was added to 80 μl of an initial assay mix (0.1 mM hKGA, 0.2 mM EDTA and 50 mM Tris/acetate, pH 8.6). Samples were incubated at 25°C for 10 min and then 10 μl of 200 mM glutamine were added to the reaction mix. After adding glutamine, the reactions were incubated at 37°C for 60 min and then quenched by the addition of 10 μl of 0.6 M HCl. Subsequently, 100 μl of a second reaction mixture (3.7 units of purified bovine liver glutamate dehydrogenase, 160 mM Tris/acetate [pH 9.4], 400 mM hydrazine, 5 mM ADP and 2 mM NAD^+) was added to the stopped first reaction mixture and incubated for 30 min at 25°C. The absorbance at 340 nm was measured using a Wallac Victor2V plate reader (PerkinElmer), fitted with a 340 nm excitation filter. Sample absorbance was measured against a blank, containing no human glutaminase.
Site-directed mutagenesis was performed on the pET28a(+)-GAB or pET28a(+)-KGA plasmids using PfuUltra II Fusion HS DNA polymerase (Agilent Technologies) to create the GAB and KGA mutants. […] The sequence alignment was compared with crystal structure of the GAC (PDB code: 3UO9) and the resulting model of GAB was analyzed using the Swiss-PDB server. […]

A further assay deals with T2, KGA_Y394L (Homo sapiens, UniProt O94925, Y394L).
T2 construct: a KGA cDNA fragment of 1644 bp (residues Leu123-Leu669); His-tag (N); made in house; host or cells: Escherichia coli
T2 sequence (O94925 123-669 Y394L): T1 sequence (O94925 123-669 D520K) with Y272L, K398D
The assay can be described thus: Glutaminase activity assay, KGA mutant Y394L. The assay is classed as biochemical. The protocol:
as §1, with “Typically, 10 μl of compound, which was dissolved in DMSO, was added to 80 μl of an initial assay mix (0.1 mM hKGA, 0.2 mM EDTA and 50 mM Tris/acetate, pH 8.6).” left out
Site-directed mutagenesis was performed on the pET28a(+)-GAB or pET28a(+)-KGA plasmids using PfuUltra II Fusion HS DNA polymerase (Agilent Technologies) to create the GAB and KGA mutants. The deep view program (Version 3.7) of the Swiss-MODEL server was used to generate the three dimensional structure of homologous modeled GAB. Using the integrated sequence alignment tools and structural superimposition algorithms, the target sequence was mapped on the modeling templates.

In the case of `CCCCCCCCCCCCCC(CC1=CC(=O)C=C(OC)C1=O)OC(C)=O` (centres unmarked) [AV-1], the IC50 against KGA_D520K worked out at 0.29 ± 0.03 µM; at KGA_Y394L, 1.4 ± 0.2 µM.
